Measured values as given in patent US7118895B2, “Process for producing aglycon by using diglycosidase and flavor-improved food containing the aglycon and converting agent to be used in the process” (Amano Enzyme Inc., priority 2000, dated 2006).

Key:
[1] = system: Diglycosidase derived from P. multicolor; assay: Reactivity toward various isoflavone glycosides (HPLC); assay type: biochemical, Penicillium multicolor; design: glucoside / aglycon: unit not given here; settings: 55 °C, pH 4.0
Procedure, shortened: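 Enzymes at 0.75 AU/mL in pH 4.0 acetate buffer were reacted at 55° C with individual isoflavone glycosides (substrate stock 2 mM in methanol) in 20 mM acetate pH 4.0. Aglycone release followed at 0, 1, 3 and 6 h: ethanol-quenched, ODS HPLC with UV 260 nm, quantified against calibration curves.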

Crude diglycosidase = assay: Examination of substrate concentration in the conversion into isoflavone aglycons by diglycosidase using soybean materials; assay type: biochemical, Penicillium multicolor IAM7153;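 on Decomposition efficiency: ratio of each glycoside/aglycon within its isoflavone family: percent of the isoflavone family total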
Procedure, shortened: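 Soybean materials (roasted soy flour, soymilk, defatted soybean, concentrated soy protein) at 2–30% (w/v) in 20 mM acetate pH 4.0 were reacted with crude diglycosidase at 55° C with shaking; enzyme solution added was 1.88 AU/mL. Samples taken at 0, 1, 3 and 6 h were ethanol-extracted and analyzed by HPLC.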

Structure (SMILES): O=C(O)CC(=O)OC[C@H]1O[C@@H](Oc2ccc3c(=O)c(-c4ccc(O)cc4)coc3c2)[C@H](O)[C@@H](O)[C@@H]1O [malonyldaidzin, 6″-O-malonyldaidzin]
- aglycon ([1]; Reaction time 0 h): 0
- glucoside ([1]; Reaction time 0 h): 100
- aglycon ([1]; Reaction time 1 h): 50.8
- glucoside ([1]; Reaction time 1 h): 49.2
- aglycon ([1]; Reaction time 3 h): 60.1
- glucoside ([1]; Reaction time 3 h): 39.9
- aglycon ([1]; Reaction time 6 h): 61.5
- glucoside ([1]; Reaction time 6 h): 38.5
- Decomposition efficiency: ratio of each glycoside/aglycon within its isoflavone family (Crude diglycosidase; roasted soy flour, substrate concentration 2%, heat treatment of enzyme no, reaction time 0 h): not detected
- Decomposition efficiency: ratio of each glycoside/aglycon within its isoflavone family (Crude diglycosidase; roasted soy flour, substrate concentration 2%, heat treatment of enzyme no, reaction time 1 h): not detected
- Decomposition efficiency: ratio of each glycoside/aglycon within its isoflavone family (Crude diglycosidase; roasted soy flour, substrate concentration 2%, heat treatment of enzyme no, reaction time 3 h): not detected
- Decomposition efficiency: ratio of each glycoside/aglycon within its isoflavone family (Crude diglycosidase; roasted soy flour, substrate concentration 2%, heat treatment of enzyme no, reaction time 6 h): not detected
- Decomposition efficiency: ratio of each glycoside/aglycon within its isoflavone family (Crude diglycosidase; roasted soy flour, substrate concentration 2%, heat treatment of enzyme yes, reaction time 6 h): not detected
- Decomposition efficiency: ratio of each glycoside/aglycon within its isoflavone family (Crude diglycosidase; roasted soy flour, substrate concentration 5%, heat treatment of enzyme no, reaction time 0 h): not detected
- Decomposition efficiency: ratio of each glycoside/aglycon within its isoflavone family (Crude diglycosidase; roasted soy flour, substrate concentration 5%, heat treatment of enzyme no, reaction time 1 h): not detected
- Decomposition efficiency: ratio of each glycoside/aglycon within its isoflavone family (Crude diglycosidase; roasted soy flour, substrate concentration 5%, heat treatment of enzyme no, reaction time 3 h): not detected
- Decomposition efficiency: ratio of each glycoside/aglycon within its isoflavone family (Crude diglycosidase; roasted soy flour, substrate concentration 5%, heat treatment of enzyme no, reaction time 6 h): not detected
- Decomposition efficiency: ratio of each glycoside/aglycon within its isoflavone family (Crude diglycosidase; roasted soy flour, substrate concentration 5%, heat treatment of enzyme yes, reaction time 6 h): not detected
- Decomposition efficiency: ratio of each glycoside/aglycon within its isoflavone family (Crude diglycosidase; roasted soy flour, substrate concentration 10%, heat treatment of enzyme no, reaction time 0 h): not detected
- Decomposition efficiency: ratio of each glycoside/aglycon within its isoflavone family (Crude diglycosidase; roasted soy flour, substrate concentration 10%, heat treatment of enzyme no, reaction time 1 h): not detected
- Decomposition efficiency: ratio of each glycoside/aglycon within its isoflavone family (Crude diglycosidase; roasted soy flour, substrate concentration 10%, heat treatment of enzyme no, reaction time 3 h): not detected
- Decomposition efficiency: ratio of each glycoside/aglycon within its isoflavone family (Crude diglycosidase; roasted soy flour, substrate concentration 10%, heat treatment of enzyme no, reaction time 6 h): not detected
- Decomposition efficiency: ratio of each glycoside/aglycon within its isoflavone family (Crude diglycosidase; roasted soy flour, substrate concentration 10%, heat treatment of enzyme yes, reaction time 6 h): not detected
- Decomposition efficiency: ratio of each glycoside/aglycon within its isoflavone family (Crude diglycosidase; roasted soy flour, substrate concentration 20%, heat treatment of enzyme no, reaction time 0 h): not detected
- Decomposition efficiency: ratio of each glycoside/aglycon within its isoflavone family (Crude diglycosidase; roasted soy flour, substrate concentration 20%, heat treatment of enzyme no, reaction time 1 h): not detected
- Decomposition efficiency: ratio of each glycoside/aglycon within its isoflavone family (Crude diglycosidase; roasted soy flour, substrate concentration 20%, heat treatment of enzyme no, reaction time 3 h): not detected
- Decomposition efficiency: ratio of each glycoside/aglycon within its isoflavone family (Crude diglycosidase; roasted soy flour, substrate concentration 20%, heat treatment of enzyme no, reaction time 6 h): not detected
- Decomposition efficiency: ratio of each glycoside/aglycon within its isoflavone family (Crude diglycosidase; roasted soy flour, substrate concentration 20%, heat treatment of enzyme yes, reaction time 6 h): not detected
- Decomposition efficiency: ratio of each glycoside/aglycon within its isoflavone family (Crude diglycosidase; roasted soy flour, substrate concentration 30%, heat treatment of enzyme no, reaction time 0 h): not detected
- Decomposition efficiency: ratio of each glycoside/aglycon within its isoflavone family (Crude diglycosidase; roasted soy flour, substrate concentration 30%, heat treatment of enzyme no, reaction time 1 h): not detected
- Decomposition efficiency: ratio of each glycoside/aglycon within its isoflavone family (Crude diglycosidase; roasted soy flour, substrate concentration 30%, heat treatment of enzyme no, reaction time 3 h): not detected
- Decomposition efficiency: ratio of each glycoside/aglycon within its isoflavone family (Crude diglycosidase; roasted soy flour, substrate concentration 30%, heat treatment of enzyme no, reaction time 6 h): not detected
- Decomposition efficiency: ratio of each glycoside/aglycon within its isoflavone family (Crude diglycosidase; roasted soy flour, substrate concentration 30%, heat treatment of enzyme yes, reaction time 6 h): not detected
- Decomposition efficiency: ratio of each glycoside/aglycon within its isoflavone family (Crude diglycosidase; soymilk, substrate concentration 2%, heat treatment of enzyme no, reaction time 0 h): 32.2%
- Decomposition efficiency: ratio of each glycoside/aglycon within its isoflavone family (Crude diglycosidase; soymilk, substrate concentration 2%, heat treatment of enzyme no, reaction time 1 h): 27.5%
- Decomposition efficiency: ratio of each glycoside/aglycon within its isoflavone family (Crude diglycosidase; soymilk, substrate concentration 2%, heat treatment of enzyme no, reaction time 3 h): 9.9%
- Decomposition efficiency: ratio of each glycoside/aglycon within its isoflavone family (Crude diglycosidase; soymilk, substrate concentration 2%, heat treatment of enzyme no, reaction time 6 h): 2.9%
- Decomposition efficiency: ratio of each glycoside/aglycon within its isoflavone family (Crude diglycosidase; soymilk, substrate concentration 2%, heat treatment of enzyme yes, reaction time 6 h): 47.0%
- Decomposition efficiency: ratio of each glycoside/aglycon within its isoflavone family (Crude diglycosidase; soymilk, substrate concentration 5%, heat treatment of enzyme no, reaction time 0 h): 53.6%
- Decomposition efficiency: ratio of each glycoside/aglycon within its isoflavone family (Crude diglycosidase; soymilk, substrate concentration 5%, heat treatment of enzyme no, reaction time 1 h): 34.2%
- Decomposition efficiency: ratio of each glycoside/aglycon within its isoflavone family (Crude diglycosidase; soymilk, substrate concentration 5%, heat treatment of enzyme no, reaction time 3 h): 15.9%
- Decomposition efficiency: ratio of each glycoside/aglycon within its isoflavone family (Crude diglycosidase; soymilk, substrate concentration 5%, heat treatment of enzyme no, reaction time 6 h): 6.1%
- Decomposition efficiency: ratio of each glycoside/aglycon within its isoflavone family (Crude diglycosidase; soymilk, substrate concentration 5%, heat treatment of enzyme yes, reaction time 6 h): 47.6%
- Decomposition efficiency: ratio of each glycoside/aglycon within its isoflavone family (Crude diglycosidase; soymilk, substrate concentration 10%, heat treatment of enzyme no, reaction time 0 h): 53.4%
- Decomposition efficiency: ratio of each glycoside/aglycon within its isoflavone family (Crude diglycosidase; soymilk, substrate concentration 10%, heat treatment of enzyme no, reaction time 1 h): 37.4%
- Decomposition efficiency: ratio of each glycoside/aglycon within its isoflavone family (Crude diglycosidase; soymilk, substrate concentration 10%, heat treatment of enzyme no, reaction time 3 h): 20.5%
- Decomposition efficiency: ratio of each glycoside/aglycon within its isoflavone family (Crude diglycosidase; soymilk, substrate concentration 10%, heat treatment of enzyme no, reaction time 6 h): 10.7%
- Decomposition efficiency: ratio of each glycoside/aglycon within its isoflavone family (Crude diglycosidase; soymilk, substrate concentration 10%, heat treatment of enzyme yes, reaction time 6 h): 47.8%
- Decomposition efficiency: ratio of each glycoside/aglycon within its isoflavone family (Crude diglycosidase; soymilk, substrate concentration 20%, heat treatment of enzyme no, reaction time 0 h): 53.6%
- Decomposition efficiency: ratio of each glycoside/aglycon within its isoflavone family (Crude diglycosidase; soymilk, substrate concentration 20%, heat treatment of enzyme no, reaction time 1 h): 41.2%
- Decomposition efficiency: ratio of each glycoside/aglycon within its isoflavone family (Crude diglycosidase; soymilk, substrate concentration 20%, heat treatment of enzyme no, reaction time 3 h): 21.5%
- Decomposition efficiency: ratio of each glycoside/aglycon within its isoflavone family (Crude diglycosidase; soymilk, substrate concentration 20%, heat treatment of enzyme no, reaction time 6 h): 16.4%
- Decomposition efficiency: ratio of each glycoside/aglycon within its isoflavone family (Crude diglycosidase; soymilk, substrate concentration 20%, heat treatment of enzyme yes, reaction time 6 h): 48.1%
- Decomposition efficiency: ratio of each glycoside/aglycon within its isoflavone family (Crude diglycosidase; soymilk, substrate concentration 30%, heat treatment of enzyme no, reaction time 0 h): 53.5%
- Decomposition efficiency: ratio of each glycoside/aglycon within its isoflavone family (Crude diglycosidase; soymilk, substrate concentration 30%, heat treatment of enzyme no, reaction time 1 h): 43.8%
- Decomposition efficiency: ratio of each glycoside/aglycon within its isoflavone family (Crude diglycosidase; soymilk, substrate concentration 30%, heat treatment of enzyme no, reaction time 3 h): 29.7%
- Decomposition efficiency: ratio of each glycoside/aglycon within its isoflavone family (Crude diglycosidase; soymilk, substrate concentration 30%, heat treatment of enzyme no, reaction time 6 h): 21.9%
- Decomposition efficiency: ratio of each glycoside/aglycon within its isoflavone family (Crude diglycosidase; soymilk, substrate concentration 30%, heat treatment of enzyme yes, reaction time 6 h): 46.9%
- Decomposition efficiency of daidzin family in defatted soybean (Crude diglycosidase; substrate concentration 2%, heat treatment of enzyme no, reaction time 0 h): 42.2
- Decomposition efficiency of daidzin family in defatted soybean (Crude diglycosidase; substrate concentration 2%, heat treatment of enzyme no, reaction time 1 h): 35.2
- Decomposition efficiency of daidzin family in defatted soybean (Crude diglycosidase; substrate concentration 2%, heat treatment of enzyme no, reaction time 3 h): 21.2
- Decomposition efficiency of daidzin family in defatted soybean (Crude diglycosidase; substrate concentration 2%, heat treatment of enzyme no, reaction time 6 h): 16.5
- Decomposition efficiency of daidzin family in defatted soybean (Crude diglycosidase; substrate concentration 2%, heat treatment of enzyme yes, reaction time 6 h): 38.1
- Decomposition efficiency of daidzin family in defatted soybean (Crude diglycosidase; substrate concentration 5%, heat treatment of enzyme no, reaction time 0 h): 41.1
- Decomposition efficiency of daidzin family in defatted soybean (Crude diglycosidase; substrate concentration 5%, heat treatment of enzyme no, reaction time 1 h): 37.7
- Decomposition efficiency of daidzin family in defatted soybean (Crude diglycosidase; substrate concentration 5%, heat treatment of enzyme no, reaction time 3 h): 30.6
- Decomposition efficiency of daidzin family in defatted soybean (Crude diglycosidase; substrate concentration 5%, heat treatment of enzyme no, reaction time 6 h): 21.0
- Decomposition efficiency of daidzin family in defatted soybean (Crude diglycosidase; substrate concentration 5%, heat treatment of enzyme yes, reaction time 6 h): 38.1
- Decomposition efficiency of daidzin family in defatted soybean (Crude diglycosidase; substrate concentration 10%, heat treatment of enzyme no, reaction time 0 h): 39.7
- Decomposition efficiency of daidzin family in defatted soybean (Crude diglycosidase; substrate concentration 10%, heat treatment of enzyme no, reaction time 1 h): 39.5
- Decomposition efficiency of daidzin family in defatted soybean (Crude diglycosidase; substrate concentration 10%, heat treatment of enzyme no, reaction time 3 h): 34.2
- Decomposition efficiency of daidzin family in defatted soybean (Crude diglycosidase; substrate concentration 10%, heat treatment of enzyme no, reaction time 6 h): 29.0
- Decomposition efficiency of daidzin family in defatted soybean (Crude diglycosidase; substrate concentration 10%, heat treatment of enzyme yes, reaction time 6 h): 37.0
